Assay results published in PubChem BioAssay (NCI).
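How tested: cells in 96-well plates exposed to compound for 48 hours at five concentrations. TGI denotes the concentration required for complete inhibition of growth.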

Columns and labels:
Experiment in all cases: inhibition of tumour cell growth, NCI panel, 48 h
[1] = tested on: 786-0 renal
[2] = tested on: A498 renal
[3] = tested on: A549 NSCLC
[4] = tested on: ACHN renal
[5] = tested on: CAKI-1 renal
[6] = tested on: CCRF-CEM leukemia
[7] = tested on: COLO 205 colon
[8] = tested on: DLD-1 colon
[9] = tested on: DMS 114 small cell lung
[10] = tested on: DMS 273 small cell lung
[11] = tested on: EKVX NSCLC
[12] = tested on: HCC-2998 colon
[13] = tested on: HCT-116 colon
[14] = tested on: HCT-15 colon
[15] = tested on: HL-60(TB) leukemia
[16] = tested on: HOP-18 NSCLC
[17] = tested on: HOP-62 NSCLC
[18] = tested on: HT29 colon
[19] = tested on: IGROV1 ovarian
[20] = tested on: K-562 leukemia
[21] = tested on: KM12 colon
[22] = tested on: KM20L2 colon
[23] = tested on: LXFL 529 NSCLC
[24] = tested on: M14 melanoma
[25] = tested on: M19-MEL melanoma
[26] = tested on: MALME-3M melanoma
[27] = tested on: MOLT-4 leukemia
[28] = tested on: NCI-H226 lung
[29] = tested on: NCI-H23 lung
[30] = tested on: NCI-H460 lung
[31] = tested on: NCI-H522 lung
[32] = tested on: OVCAR-3 ovarian
[33] = tested on: OVCAR-4 ovarian
[34] = tested on: OVCAR-5 ovarian
[35] = tested on: OVCAR-8 ovarian
[36] = tested on: RPMI-8226 leukemia
[37] = tested on: RXF 393 renal
[38] = tested on: SF-268 CNS
[39] = tested on: SF-295 CNS
[40] = tested on: SF-539 CNS
[41] = tested on: SK-MEL-2 melanoma
[42] = tested on: SK-MEL-5 melanoma
[43] = tested on: SK-OV-3 ovarian
[44] = tested on: SN12C renal
[45] = tested on: SNB-19 CNS
[46] = tested on: SNB-75 CNS
[47] = tested on: SNB-78 CNS
[48] = tested on: SW-620 colon
[49] = tested on: TK-10 renal
[50] = tested on: U251 CNS
[51] = tested on: UACC-257 melanoma
[52] = tested on: UACC-62 melanoma
[53] = tested on: UO-31 renal
[54] = tested on: XF 498 CNS
[55] = tested on: HOP-92 NSCLC
[56] = tested on: LOX IMVI melanoma
[57] = tested on: SK-MEL-28 melanoma
[58] = tested on: SR leukemia

For `CC(=O)O[C@H]1CC[C@@]2(C)C(=CC[C@@H]3C2CC[C@]2(C)Nc4nc5ccccc5cc4CC32)C1` (stereo partly drawn), the TGI [1] was 10.7 µM, the TGI [2] was 18.9 µM and the TGI [3] was 12.9 µM. The TGI [4] was 16.9 µM, the TGI [5] was 18.4 µM and the TGI [6] was 14 µM. It also gave a TGI [7] of 20.9 µM, a TGI [8] of 15.6 µM and a TGI [9] of 18 µM. For the same compound, the TGI [10] was 13.8 µM, the TGI [11] was 18.8 µM and the TGI [12] was 10.8 µM. The TGI [13] was 3.8 µM, the TGI [14] was 8.01 µM and the TGI [15] was 17.7 µM. For the same compound, the TGI [16] was 13.5 µM, the TGI [17] was 26.7 µM and the TGI [18] was 3.68 µM. For the same compound, the TGI [19] was 30 µM, the TGI [20] was 11.6 µM and the TGI [21] was 12.9 µM. For the same compound, the TGI [22] was 3.66 µM, the TGI [23] was 12 µM and the TGI [24] was 5.03 µM. It also gave a TGI [25] of 12.2 µM, a TGI [26] of 21.7 µM and a TGI [27] of 11.7 µM. The TGI [28] was 8.25 µM, the TGI [29] was 26.6 µM and the TGI [30] was 17.5 µM. For the same compound, the TGI [31] was 24.1 µM, the TGI [32] was 8.53 µM and the TGI [33] was 21.4 µM. For the same compound, the TGI [34] was 26.9 µM, the TGI [35] was 10.9 µM and the TGI [36] was 42.1 µM. For the same compound, the TGI [37] was 5.09 µM, the TGI [38] was 14.9 µM and the TGI [39] was 13.9 µM. For the same compound, the TGI [40] was 12 µM, the TGI [41] was 31.7 µM and the TGI [42] was 15.4 µM. For the same compound, the TGI [43] was 8.4 µM, the TGI [44] was 20.1 µM and the TGI [45] was 7.89 µM. It also gave a TGI [46] of 8.68 µM, a TGI [47] of 21.1 µM and a TGI [48] of 7.2 µM. The TGI [49] was 18.1 µM, the TGI [50] was 7.58 µM and the TGI [51] was 13 µM. The TGI [52] was 22.9 µM, the TGI [53] was 16.9 µM and the TGI [54] was 18.5 µM.
With `Nc1ncnc2c1ncn2C1CC(OCc2ccccc2[N+](=O)[O-])C(CO)O1` (stereo not drawn) the TGI [1] was > 50 µM, the TGI [2] was > 50 µM and the TGI [3] was > 50 µM. For the same compound, the TGI [4] was 47.6 µM, the TGI [6] was > 50 µM and the TGI [7] was 16.9 µM. For the same compound, the TGI [8] was > 50 µM, the TGI [9] was 47.2 µM and the TGI [10] was > 50 µM. The TGI [11] was > 50 µM, the TGI [12] was > 50 µM and the TGI [13] was > 50 µM. The TGI [14] was > 50 µM, the TGI [15] was 31.6 µM and the TGI [16] was > 50 µM. The TGI [17] was > 50 µM, the TGI [55] was > 50 µM and the TGI [18] was > 50 µM. For the same compound, the TGI [19] was > 50 µM, the TGI [20] was > 50 µM and the TGI [21] was > 50 µM. For the same compound, the TGI [22] was > 50 µM, the TGI [56] was > 50 µM and the TGI [23] was > 50 µM. The TGI [24] was > 50 µM, the TGI [25] was 48.5 µM and the TGI [26] was > 50 µM. For the same compound, the TGI [27] was > 50 µM, the TGI [28] was 36.3 µM and the TGI [29] was > 50 µM. For the same compound, the TGI [30] was > 50 µM, the TGI [31] was 35.9 µM and the TGI [32] was > 50 µM. For the same compound, the TGI [33] was > 50 µM, the TGI [34] was > 50 µM and the TGI [35] was > 50 µM. For the same compound, the TGI [36] was > 50 µM, the TGI [37] was 21.4 µM and the TGI [38] was > 50 µM. The TGI [39] was > 50 µM, the TGI [40] was > 50 µM and the TGI [41] was > 50 µM. For the same compound, the TGI [57] was > 50 µM, the TGI [43] was > 50 µM and the TGI [44] was > 50 µM. The TGI [45] was > 50 µM, the TGI [47] was > 50 µM and the TGI [58] was 34.6 µM. The TGI [48] was > 50 µM, the TGI [49] was > 50 µM and the TGI [50] was > 50 µM. For the same compound, the TGI [51] was > 50 µM, the TGI [53] was 48 µM and the TGI [54] was > 50 µM.
